Our source for the Ki and EC50 values is patent EP0741709B1, “AROMATIC 2-AMINO-IMIDAZOLE DERIVATIVES AS ALPHA-2A ADRENOCEPTOR AGONISTS” (Allergan Sales, Inc., priority 1994, dated 1995).

One test concerns the target α1 receptors. The experiment in a line: Receptor binding assay, [3H]prazosin, human cerebral cortex (HCC) membranes. Conditions: 22°C, 30 minutes, read-out: Ki (nM) α1 human brain. As to the method:
Tissue preparation: Membrane suspensions were prepared from human cerebral cortex (HCC, for α1 receptors) obtained from the UCI Organ and Tissue Bank. Briefly, tissues (1g) were homogenized in 25 mL of ice-cold 5 mM tris, pH 7.4 with a Polytron homogenizer for 30 sec at setting #7, and centrifuged for 10-12 minutes at 300 x g a 4°C. The supernatant was filtered through 2 layers of gauze and diluted 1:2 with 50 mM Tris-HCl buffer, pH 7.4, then centrifuged at 49,000 x g for 20 minutes. The pellet fraction was washed 3 times (resuspended in Tris-HCl buffer and centrifuged for 20 minutes at 49,000 x g). The pellet was then stored at -80°C until the binding assay.
Binding Studies: The radioligands [^3H]rauwolscine (specific activity 80 Ci/mmol) and [^3H]prazosin (specific activity 76 Ci/mmol) were obtained from New England Nuclear, Boston, MA. Frozen membrane pellet was resuspended in 25 mM glycine/glycine, pH 7.5 and incubated with radioligand under the following conditions: CHO-C10, CHO-RNG, CHO-C4-[^3H]rauwolscine, 22°C, 30 minutes; RKC-[^3H]rauwolscine, 0°C, 120 minutes; and, HCC-[^3H]prazosin, 22°C, 30 minutes in a final volume of 500 ul. At the end of the incubation period, the samples were filtered through glass filters (Whatman GF/B) in a 96 well cell harvester and rapidly washed four times with 4 mL of iced-cold 50 mM Tris-HCl buffer. The filters were then oven dried and transferred to scintillation vials containing 10 mL of Beckman's Ready Protein® scintillation cocktail for counting. Specific binding defined by 10 uM phentolamine for competition studies were as follows: 2.4 nM [^3H]brimonidine-RbICB 62%; 2.4 nM [^3H]rauwolscine-RbICB 75%; 2 nM [^3H]rauwolscine-RbKc 88%; 0.3 nM [^3H] rauwolscine-CHO-C10 99%; 0.4 nM [^3H]rauwolscine-CHO-RNG 99%, 0.3 nM [^3H]prazosin 87%; and 1 nM [^3H]rauwolscine-CHO-C4 90%. Protein concentrations were determined with a protein assay kit from Bio Rad. Binding isotherms, equilibrium dissociation and affinity constants were analyzed and determined by the non-linear least squares curve fitting programs EBDA (BioSoft) or AccuFit Competition/Saturation by Beckman.
The radioligands [^3H)rauwolscine (specific activity 80 Ci/mmol) and [^3H]prazosin (specific activity 76 Ci/mmol) were obtained from New England Nuclear, Boston, MA. Frozen membrane pellet was resuspended in 25 mM glycine/glycine, pH 7.4 and incubated with radioligand under the following conditions: CHO-C10, CHO-RNG, CHO-C4-[^3H]rauwolscine, 22°C, 30 min.; and, HCC-[^3H]prazosin, 22°C, 30 minutes in a final volume of 500 ul. At the end of the incubation period, the samples were filtered through glass fiber filters (Whatman GF/B) in a 96 well cell harvester and rapidly washed four times with 4 mL of iced-cold 50 mM Tris-CHl buffer. The filters were then oven dried and transferred to scintillation vials containing 5 mL of Beckman's Ready Protein® scintillation cocktail for counting. Specific binding defined by 10 uM phentolamine for competition studies were as follows: 0.3 nM[^3H] rauwolscine-CHO-C10 99%; 0.4 nM [^3H]rauwolscine-CHO-RNG 99%, and 0.3 nM [^3H] prazosin-HCC 87%. Protein concentrations were determined with a protein assay kit from Bio Rad. Binding isotherms, equilibrium dissociation and affinity constants were analyzed and determined by the non-linear least squares curve fitting programs AccuFit Competition/Saturation by Beckman.

A further test deals with T1, α2A receptor (Oryctolagus cuniculus, UniProt Q5ZQK3).
T1 construct: The prostatic ends of the vas deferens (2-3 cm) were removed from albino rabbits; from tissue; host or cells: rabbit vas deferens (prostatic end)
T1 sequence (Q5ZQK3 1-451): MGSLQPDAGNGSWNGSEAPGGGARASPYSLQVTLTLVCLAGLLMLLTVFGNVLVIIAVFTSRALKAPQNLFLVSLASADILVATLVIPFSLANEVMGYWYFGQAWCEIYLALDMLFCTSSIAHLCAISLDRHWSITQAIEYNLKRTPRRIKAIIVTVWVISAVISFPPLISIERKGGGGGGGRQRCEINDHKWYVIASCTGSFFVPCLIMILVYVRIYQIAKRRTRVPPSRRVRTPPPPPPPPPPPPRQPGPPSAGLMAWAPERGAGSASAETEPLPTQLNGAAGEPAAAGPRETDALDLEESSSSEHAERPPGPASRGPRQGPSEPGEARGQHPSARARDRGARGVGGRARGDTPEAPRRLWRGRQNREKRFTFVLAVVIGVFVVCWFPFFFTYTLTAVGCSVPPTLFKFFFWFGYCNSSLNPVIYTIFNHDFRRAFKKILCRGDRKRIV
The experiment in a line: Vas deferens functional assay: reduction of electrically evoked contractions. The class given is cell-based. Conditions: field-stimulated isolated rabbit vas deferens, 50% reduction in peak height. As to the method: Vas Deferens: The prostatic ends of the vas deferens (2-3 cm) were removed from albino rabbits and mounted between platinum electrodes in 9 mL organ baths containing Krebs-Hensleit solution of the following composition (mM): NaCl 119, KCl 4.7, MgSO4 1.5, KH2PO4 1.2. CaCl2 2.5, NaHCO3 25 and glucose 11. This solution was maintained at 35° C and bubbled with 95% O2 and 5% CO2. The tissue was equilibrated at 0.5 g tension for 30 minutes. The vas deferens strips were then field stimulated at 0.1 Hz, 2 msec, 90 mA using a square wave stimulator (World Precision Instruments A310 Accupulser / A385 Stimulus Isolater), or a Grass S48 stimulator at 0.1 Hz, 2 msec, 70 volts. After 30 minutes of electrical stimulation, cumulative concentration-response curves in 0.25 log units were obtained with a 4 minute contact time for each concentration. Each tissue was used to evaluate only one drug. Tissue contractions produced by the field stimulation were measured isometrically using Grass FT-.03 force-displacement transducers and recorded on a Grass Model 7D physiograph. The reduction in electrically-evoked peak height by the drugs was measured and expressed as a percentage of the pre-drug peak height.
Representative compounds of the present invention, and comparative examples, were tested according to the procedures given above. The receptor binding studies and […] are measures of the affinity of a compound for a particular receptor. The vas deferens assay is a measure of the degree of activation of the α2A affected when a compound binds to that receptor.

Molecules are shown by their SMILES.

Usually Ki stands for a dissociation constant, usually derived from enzyme kinetics or from competition with a known ligand. One may read the EC50 as the concentration giving half of the maximal effect. A lower EC50 goes with an effect from little substance. Turning to `c1ccc(Nc2ncc[nH]2)cc1`, the Ki on α1 receptors is 67500 nM. In addition, the response on α2A receptor was half-maximal at 56200 nM (EC50). On to `Clc1ccccc1Nc1ncc[nH]1`, for which, on α1 receptors, the Ki came out at 23200 nM. Consider `Brc1ccccc1Nc1ncc[nH]1`, for which the Ki on α1 receptors was determined as 9980 nM.

As to `Clc1cccc(Cl)c1Nc1ncc[nH]1`, on α1 receptors, the Ki turned out to be 5940 nM. The same compound showed an EC50 at α2A receptor of 86.3 nM. Regarding `Cc1ccccc1Nc1ncc[nH]1`, on α1 receptors, the Ki came to 10600 nM.

For `Brc1c(Nc2ncc[nH]2)ccc2nccnc12`, on α1 receptors, the Ki was found to be 100000 nM. The same compound had an EC50 at α2A receptor of 49.4 nM.

In the case of `Cc1c(Nc2ncc[nH]2)ccc2nccnc12`, the Ki on α1 receptors was 30600 nM. In addition, the response at α2A receptor was half-maximal at 35.3 nM (EC50). Take `Cc1c(Nc2ncc[nH]2)ccc2c1OCCO2`: the Ki at α1 receptors stood at 2150 nM. Moreover, the EC50 on α2A receptor is 1.61 nM.

With `c1cc2c(c(Nc3ncc[nH]3)c1)CCCC2`, the Ki at α1 receptors was found to be 4980 nM. On the same count and under the same terms, for `Cc1c(Nc2ncc[nH]2)ccc2c1NCCO2` the value was 14800 nM; for `COc1ccc(Nc2ncc[nH]2)c(C)c1`, 7610 nM.
